Reference: publication PMC7265429, “Characterization of a new small-molecule inhibitor of HDAC6 in glioblastoma” (Cell Death & Disease, 2020)

System: GNS166 cells
Experiment: Microarray whole-transcriptome gene expression analysis
Type: cell-based, human
Procedure: Whole-transcriptome analysis was performed from 300 ng of RNA using HuGene-2_0-st-v1 expression array (Affymetrix), which covers 48,226 transcripts. Raw data were first checked for quality purposes through the Affymetrix® Expression Console™ Software v1.4.1 and TAC software v4.0. Then, data were normalized using the Robust Multi-array Average (RMA) and analyzed by Limma tool. Probesets with FDR-corrected p-values smaller than 0.05 were selected. Functional enrichment on Gene Ontology (GO) biological processes was performed on a smaller subset of the differentially expressed genes (corrected p-value < 0.001) by means of Broad Institute GSEA. […] The data that support this study have been deposited in NCBI´s Gene Expression Omnibus and are accessible through GEO series accession number GSE143887.

[1] = sheet DMSO-SAHA_DOWN, microarray

O=C(CCCCCCC(=O)Nc1ccccc1)NO [SAHA, Suberoylanilide hydroxamic acid]
logFC ZNF85 (DMSO vs SAHA, downregulated, transcript TC1900007502.hg.1): -1.299
logFC ZNF254 (DMSO vs SAHA, downregulated, transcript TC1900007622.hg.1): -1.436
logFC AXL (DMSO vs SAHA, downregulated, transcript TC1900008143.hg.1): -2.335
logFC KEAP1 (DMSO vs SAHA, downregulated, transcript TC1900009630.hg.1): -1.437
logFC EMP3 (DMSO vs SAHA, downregulated, transcript TC1900011774.hg.1): -1.798
logFC UBE2C (DMSO vs SAHA, downregulated, transcript TC2000007503.hg.1): -1.95
logFC JPH2 (DMSO vs SAHA, downregulated, transcript TC2000009178.hg.1): -1.382
logFC ZFP64 (DMSO vs SAHA, downregulated, transcript TC2000009469.hg.1): -1.251
logFC AURKA (DMSO vs SAHA, downregulated, transcript TC2000009550.hg.1): -1.686
logFC UCKL1 (DMSO vs SAHA, downregulated, transcript TC2000009848.hg.1): -1.222
logFC MX1 (DMSO vs SAHA, downregulated, transcript TC2100007208.hg.1): -1.686
logFC COL6A1 (DMSO vs SAHA, downregulated, transcript TC2100007446.hg.1): -1.16
logFC SUMO3 (DMSO vs SAHA, downregulated, transcript TC2100008385.hg.1): -1.431
logFC TRIOBP (DMSO vs SAHA, downregulated, transcript TC2200007313.hg.1): -1.456
logFC MICALL1 (DMSO vs SAHA, downregulated, transcript TC2200007324.hg.1): -1.322
logFC ZC3H7B (DMSO vs SAHA, downregulated, transcript TC2200007467.hg.1): -1.779
logFC GTSE1 (DMSO vs SAHA, downregulated, transcript TC2200007662.hg.1): -1.615
logFC TXNRD2 (DMSO vs SAHA, downregulated, transcript TC2200008001.hg.1): -1.47
logFC PATZ1 (DMSO vs SAHA, downregulated, transcript TC2200008477.hg.1): -1.5057
logFC NDUFA6 (DMSO vs SAHA, downregulated, transcript TC2200008859.hg.1): -1.148
logFC APOBEC3B (DMSO vs SAHA, downregulated, transcript TC2200009270.hg.1): -1.723
logFC APOBEC3C (DMSO vs SAHA, downregulated, transcript TC2200009271.hg.1): -1.685
logFC RBX1 (DMSO vs SAHA, downregulated, transcript TC2200009278.hg.1): -1.233
logFC TRMU (DMSO vs SAHA, downregulated, transcript TC2200009288.hg.1): -1.487
logFC KIF15 (DMSO vs SAHA, downregulated, transcript TSUnmapped00000255.hg.1): -1.857
logFC KIF15 (DMSO vs SAHA, downregulated, transcript TSUnmapped00000627.hg.1): -1.713
logFC AES (transcript TC1900009272.hg.1) [1]: -1.167
logFC APOBEC3G (transcript TC2200009274.hg.1) [1]: -1.162
logFC ATF7 (transcript TC1200010809.hg.1) [1]: -0.8995
logFC ATG4D (transcript TC1900006989.hg.1) [1]: -0.9381
logFC ATP5G2 (transcript TC1200012798.hg.1) [1]: -0.8974
logFC ATXN10 (transcript TC2200007626.hg.1) [1]: -0.8219
logFC AVEN (transcript TC1500008971.hg.1) [1]: -1.4
logFC B4GALT2 (transcript TC0100008082.hg.1) [1]: -1.044
logFC BORCS7-ASMT (transcript TC1000012497.hg.1) [1]: -1.471
logFC C1QBP (transcript TC1700012341.hg.1) [1]: -0.864
logFC CARD8 (transcript TC1900011061.hg.1) [1]: -1.473
logFC CD109 (transcript TC0600008539.hg.1) [1]: -1.058
logFC CDC25B (transcript TC2000006559.hg.1) [1]: -1.166
logFC COMT (transcript TC2200006623.hg.1) [1]: -1.056
logFC CXCL14 (transcript TC0500012107.hg.1) [1]: -1.597
logFC DENND2A (transcript TC0700012813.hg.1) [1]: -1.223
logFC EOGT (transcript TC0300011448.hg.1) [1]: -1.387
logFC FAM65B (transcript TC0600014247.hg.1) [1]: -1.186
logFC FAM83D (transcript TC2000007341.hg.1) [1]: -1.0787
logFC FBXO32 (transcript TC0800011683.hg.1) [1]: -1.239
logFC FHL2 (transcript TC0200013750.hg.1) [1]: -1.323
logFC GYG1 (transcript TC0300009126.hg.1) [1]: -0.8272
logFC H2AFY2 (transcript TC1000007913.hg.1) [1]: -1.438
logFC HGSNAT (transcript TC0800007460.hg.1) [1]: -1.179
logFC HIST1H1E (transcript TC0600007273.hg.1) [1]: -0.9296
logFC HIST1H2AK (transcript TC0600011228.hg.1) [1]: -1.094
logFC HIST1H3G (transcript TC0600011142.hg.1) [1]: -1.091
logFC HIST2H2AB (transcript TC0100015711.hg.1) [1]: -1.264
logFC HMGB2 (transcript TC0400012432.hg.1) [1]: -1.248
logFC HNF4G (transcript TC0800008002.hg.1) [1]: -1.665
logFC HOXB6 (transcript TC1700012433.hg.1) [1]: -0.9482
logFC HOXB7 (transcript TC1700012434.hg.1) [1]: -1.178
logFC HSF2BP (transcript TC2100008306.hg.1) [1]: -1.094
logFC KAT7 (transcript TC1700008216.hg.1) [1]: -0.9549
logFC KIF15 (transcript TSUnmapped00000127.hg.1) [1]: -1.52
logFC KIF15 (transcript TSUnmapped00000190.hg.1) [1]: -1.209
logFC KIF15 (transcript TSUnmapped00000242.hg.1) [1]: -1.3548
logFC KPNA2 (transcript TC1700008719.hg.1) [1]: -0.848
logFC KRTCAP2 (transcript TC0100018498.hg.1) [1]: -0.9489
logFC LOXL1 (transcript TC1500007829.hg.1) [1]: -1.906
logFC LRRC41 (transcript TC0100014050.hg.1) [1]: -1.4599
logFC MCPH1 (transcript TC0800006557.hg.1) [1]: -1.179
logFC MRPL15 (transcript TC0800007653.hg.1) [1]: -1.399
logFC MSRA (transcript TC0800006697.hg.1) [1]: -0.9684
logFC MYBL2 (transcript TC2000007438.hg.1) [1]: -1.297
logFC NCAPG2 (transcript TC0700013290.hg.1) [1]: -1.083
logFC NFKB1 (transcript TC0400008271.hg.1) [1]: -1.316
logFC NQO1 (transcript TC1600010732.hg.1) [1]: -1.465
logFC PKNOX1 (transcript TC2100007278.hg.1) [1]: -1.264
logFC PRRC2A (transcript TC0600007599.hg.1) [1]: -0.9194
logFC PTPRE (transcript TC1000009296.hg.1) [1]: -0.9151
logFC PTRHD1 (transcript TC0200011990.hg.1) [1]: -0.8388
logFC RHNO1 (transcript TC1200012573.hg.1) [1]: -1.078
logFC RUNX2 (transcript TC0600008146.hg.1) [1]: -1.088
logFC SAMD9L (transcript TC0700011797.hg.1) [1]: -1.884
logFC SCG2 (transcript TC0200015865.hg.1) [1]: -0.9206
logFC SLC47A2 (transcript TC1700010035.hg.1) [1]: -1.04
logFC SMARCB1 (transcript TC2200006862.hg.1) [1]: -1.487
logFC TAPBP (transcript TC0600011536.hg.1) [1]: -0.9356
logFC TAS2R13 (transcript TC1200009921.hg.1) [1]: -1.256
logFC TFDP1 (transcript TC1300008144.hg.1) [1]: -0.8938
logFC TK2 (transcript TC1600011551.hg.1) [1]: -1.009
logFC TNFRSF12A (transcript TC1600006652.hg.1) [1]: -0.9964
